Results on 24 compounds are retold here after patent publication US20080004290A1, “Anti-Cancer Agents” (THE UNIVERSITY OF QUEENSLAND, priority 2003, published 2008).

One assay deals with MM96L melanoma cells. Kind of assay: Cell survival assay (clonogenic survival, SRB). Conditions: for SI (Selectivity Index = IC50 (NFF)/IC50 (MM96L)): NFF vs MM96L. Format: cell-based, human. A digest of the protocol:
(§1)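 Cells (5×10^3/well, RPMI 1640 with 10% FCS) treated 24 h with compound at 0.01-10 μg/mL, then washed and grown 72 h drug-free at 37 °C, 5% CO2. Survival read by SRB staining after methylated-spirit fixation, absorbance 564 nm.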

Assay [1] has as its system NFF, neonatal foreskin fibroblasts. As to the kind of experiment: Cell survival assay (clonogenic survival, SRB), normal cells. Format: cell-based, human. Conditions: NFF normal fibroblasts, 24 h with compound, further 72 h growth, SRB, read-out: IC50 (uM) NFF. The method, boiled down: as §1
Where [2] appears, read: Homo sapiens, MM96L, MM96L melanoma, 24 h with compound, further 72 h growth, SRB, read-out: IC50 (uM) MM96L.
[3] abbreviates: Homo sapiens, MM96L, most preferred compounds, exemplary examples, read-out: potency of IC50 against the MM96 melanoma cells.
Where [4] appears, read: MM96L melanoma, 24 h with compound, further 72 h growth, SRB, read-out: IC50 (uM) MM96L.

Molecules are shown by their SMILES. Where two headings read alike, the source gives them in different places.

For `O=C(CCCCC[C@H](NC(=O)c1ccc(Br)cc1)C(=O)NCc1ccccc1)NO` [Example 136], the IC50 in the assay on MM96L melanoma cells (setting [2]) was 1.99 µM; in assay [1] (Homo sapiens, Fibroblast), 5.86 µM. Besides, the “SI (Selectivity Index = IC50 (NFF)/IC50 (MM96L))” value in the assay on MM96L melanoma cells is 4.2.

For the compound `O=C(/C=C/c1ccccc1)N[C@@H](CCCCCC(=O)NO)C(=O)NCc1ccccc1` [Example 137], the IC50 in the assay with MM96L melanoma cells (setting [3]) is ≤ 0.5 µM; in the assay on MM96L melanoma cells (setting [4]), 0.46 µM; in assay [1], 4.01 µM. The “SI (Selectivity Index = IC50 (NFF)/IC50 (MM96L))” value with MM96L melanoma cells is recorded as 8.7.

As for `O=C(/C=C/c1ccccc1)N[C@@H](CCCCCC(=O)NO)C(=O)NCc1ccccc1` [Example 138], the concentration for half-maximal inhibition (IC50) in the assay on MM96L melanoma cells (setting [4]) turned out to be 0.252 µM; in assay [1], 1.15 µM. The “SI (Selectivity Index = IC50 (NFF)/IC50 (MM96L))” value in the assay on MM96L melanoma cells turned out to be 4.5.

Regarding `O=C(CCCCC[C@H](NC(=O)C12CC3CC(CC(C3)C1)C2)C(=O)NCc1ccccc1)NO` [Example 139], the 50% inhibitory concentration (IC50) with MM96L melanoma cells (setting [4]) stood at 3.95 µM; in assay [1], 7.13 µM. Further, in the assay with MM96L melanoma cells, the “SI (Selectivity Index = IC50 (NFF)/IC50 (MM96L))” value is 1.8.

Turning to `O=C(CCCCC[C@H](NC(=O)Cc1ccc(-c2ccccc2)cc1)C(=O)NCc1ccccc1)NO` [Example 140], the half-maximal inhibitory concentration (IC50) with MM96L melanoma cells (setting [2]) turned out to be 2.36 µM; in assay [1] (Homo sapiens, Fibroblast), 5.13 µM. Moreover, the “SI (Selectivity Index = IC50 (NFF)/IC50 (MM96L))” value in the assay on MM96L melanoma cells turned out to be 2.2.

On to `O=C(CCCCC[C@H](NC(=O)c1cccs1)C(=O)NCc1ccccc1)NO` [Example 141], for which the IC50 was 0.892 µM in the assay with MM96L melanoma cells (setting [2]) and 5.2 µM in assay [1] (Homo sapiens, Fibroblast). For the same compound, in the assay on MM96L melanoma cells, the “SI (Selectivity Index = IC50 (NFF)/IC50 (MM96L))” value was determined as 5.8.

Consider `O=C(CCCCC[C@H](NC(=O)OCC1c2ccccc2-c2ccccc21)C(=O)NCc1ccccc1)NO` [Example 142], for which the concentration for half-maximal inhibition (IC50) in the assay with MM96L melanoma cells (setting [2]) stood at 3.2 µM; in assay [1] (Homo sapiens, Fibroblast), 5.37 µM. Also, in the assay on MM96L melanoma cells, the “SI (Selectivity Index = IC50 (NFF)/IC50 (MM96L))” value was determined as 1.7.

With `O=C(CCCCC[C@H](NC(=O)c1ccc(C(F)(F)F)cc1)C(=O)Nc1cccc2cccnc12)NO` [Example 147], the IC50 in the assay with MM96L melanoma cells (setting [2]) was found to be 0.258 µM; in assay [1] (Homo sapiens, Fibroblast) it was 0.696 µM. In addition, in the assay with MM96L melanoma cells, the “SI (Selectivity Index = IC50 (NFF)/IC50 (MM96L))” value was 2.7.

On to `CN(C)c1ccc(NC(=O)[C@H](CCCCCC(=O)NO)NC(=O)/C=C/c2ccccc2)cc1` [Example 150], for which the IC50 in the assay on MM96L melanoma cells (setting [2]) came out at 0.165 µM; in assay [1] (Homo sapiens, Fibroblast), 0.24 µM. Moreover, in the assay on MM96L melanoma cells, the “SI (Selectivity Index = IC50 (NFF)/IC50 (MM96L))” value is on record as 1.5.

With `CN(C)c1ccc(NC(=O)[C@H](CCCCCC(=O)NO)NC(=O)OCc2ccccc2)cc1` [Example 151], the IC50 in the assay with MM96L melanoma cells (setting [2]) came to 0.61 µM; in assay [1] (Homo sapiens, Fibroblast), 0.65 µM. Besides, in the assay on MM96L melanoma cells, the “SI (Selectivity Index = IC50 (NFF)/IC50 (MM96L))” value is reported as 1.1.

As for `CN(C)c1ccc(NC(=O)[C@H](CCCCCC(=O)NO)NC(=O)c2ccc(C(F)(F)F)cc2)cc1` [Example 152], the IC50 with MM96L melanoma cells (setting [2]) turned out to be 0.222 µM; in assay [1] (Homo sapiens, Fibroblast), 0.404 µM. The “SI (Selectivity Index = IC50 (NFF)/IC50 (MM96L))” value with MM96L melanoma cells is on record as 1.8.

For the compound `O=C(/C=C/c1ccccc1)N[C@@H](CCCCCC(=O)NO)C(=O)NCc1ccccc1` [Example 153], the IC50 in the assay on MM96L melanoma cells (setting [4]) stood at 0.731 µM; in assay [1], 0.99 µM. Further, the “SI (Selectivity Index = IC50 (NFF)/IC50 (MM96L))” value with MM96L melanoma cells is on record as 1.4.

For `O=C(CCCCC[C@H](NC(=O)OCc1ccccc1)C(=O)NCc1ccccc1)NO` [Example 154], the IC50 with MM96L melanoma cells (setting [2]) amounted to 1.52 µM; in assay [1] (Homo sapiens, Fibroblast), 1.52 µM. The “SI (Selectivity Index = IC50 (NFF)/IC50 (MM96L))” value in the assay on MM96L melanoma cells is 1.

Take `O=C(CCCCC[C@H](NC(=O)c1ccc(C(F)(F)F)cc1)C(=O)NCc1ccccc1)NO` [Example 155]: the IC50 in the assay with MM96L melanoma cells (setting [2]) was 0.665 µM; in assay [1] (Homo sapiens, Fibroblast), 1.61 µM. In addition, the “SI (Selectivity Index = IC50 (NFF)/IC50 (MM96L))” value in the assay on MM96L melanoma cells is given as 2.4.

With `O=C(CCCCCC(NC(=O)OCc1ccccc1)C(=O)NC1CCCc2ccccc21)NO` (stereo not shown) [Example 156], the IC50 (in the assay with MM96L melanoma cells (setting [4]); in assay [1]) was 1.71 µM in each case. Also, the “SI (Selectivity Index = IC50 (NFF)/IC50 (MM96L))” value with MM96L melanoma cells was found to be 1.

As for `O=C(CCCCC[C@H](NC(=O)c1ccc(Br)cc1)C(=O)NCc1ccccn1)NO` [Example 157], the IC50 in the assay with MM96L melanoma cells (setting [2]) worked out at 1.15 µM; in assay [1] (Homo sapiens, Fibroblast), 2.09 µM. Besides, in the assay with MM96L melanoma cells, the “SI (Selectivity Index = IC50 (NFF)/IC50 (MM96L))” value is recorded as 1.8.

For the compound `O=C(CCCCC[C@H](NC(=O)c1ccc(Br)cc1)C(=O)NCc1ccncc1)NO` [Example 158], the half-maximal inhibitory concentration (IC50) in the assay on MM96L melanoma cells (setting [2]) was determined as 0.837 µM; in assay [1] (Homo sapiens, Fibroblast), 5.24 µM. Also, the “SI (Selectivity Index = IC50 (NFF)/IC50 (MM96L))” value in the assay on MM96L melanoma cells amounted to 6.3.

On to `O=C(CCCCC[C@H](NC(=O)OCc1ccccc1)C(=O)NCc1ccncc1)NO` [Example 159], for which the concentration for half-maximal inhibition (IC50) with MM96L melanoma cells (setting [2]) amounted to 4.32 µM; in assay [1] (Homo sapiens, Fibroblast) it was 23.3 µM. In addition, the “SI (Selectivity Index = IC50 (NFF)/IC50 (MM96L))” value in the assay with MM96L melanoma cells is reported as 5.4.

For `O=C(CCCCC[C@H](NC(=O)OCc1ccccc1)C(=O)Nc1ccc(-c2ccccc2)cc1)NO` [Example 160], the half-maximal inhibitory concentration (IC50) was 0.331 µM with MM96L melanoma cells (setting [2]); ≤ 0.5 µM with MM96L melanoma cells (setting [3]); 2.21 µM in assay [1] (Homo sapiens, Fibroblast). The “SI (Selectivity Index = IC50 (NFF)/IC50 (MM96L))” value in the assay on MM96L melanoma cells is listed as 6.7.

As to `O=C(CCCCC[C@H](NC(=O)Cc1c[nH]c2ccccc12)C(=O)NCc1ccccc1)NO` [Example 162], the IC50 was 0.332 µM in the assay with MM96L melanoma cells (setting [2]); ≤ 0.5 µM in the assay on MM96L melanoma cells (setting [3]); > 2.22 µM in assay [1] (Homo sapiens, Fibroblast). In addition, in the assay on MM96L melanoma cells, the “SI (Selectivity Index = IC50 (NFF)/IC50 (MM96L))” value was >7.

Take `O=C(CCCCC[C@H](NC(=O)CCCc1c[nH]c2ccccc12)C(=O)NCc1ccccc1)NO` [Example 163]: the IC50 in the assay with MM96L melanoma cells (setting [2]) came out at 1.84 µM; in assay [1] (Homo sapiens, Fibroblast), 7.03 µM. Besides, the “SI (Selectivity Index = IC50 (NFF)/IC50 (MM96L))” value with MM96L melanoma cells came out at 3.8.

Regarding `O=C(CCCCC[C@H](NC(=O)c1cc2c(Br)cccc2[nH]1)C(=O)NCc1ccccc1)NO` [Example 165], the IC50 in the assay with MM96L melanoma cells (setting [2]) is 0.485 µM; in assay [1] (Homo sapiens, Fibroblast), 1.94 µM. Also, in the assay on MM96L melanoma cells, the “SI (Selectivity Index = IC50 (NFF)/IC50 (MM96L))” value is listed as 4.0.

In the case of `O=C(CCCCC[C@H](NC(=O)c1cc2c(O)cccc2[nH]1)C(=O)NCc1ccccc1)NO` [Example 166], the half-maximal inhibitory concentration (IC50) was 0.331 µM in the assay on MM96L melanoma cells (setting [2]); ≤ 0.5 µM in the assay with MM96L melanoma cells (setting [3]); 2.21 µM in assay [1] (Homo sapiens, Fibroblast). Moreover, the “SI (Selectivity Index = IC50 (NFF)/IC50 (MM96L))” value with MM96L melanoma cells is 6.7.

Consider `O=C(/C=C/c1c[nH]c2ccccc12)N[C@@H](CCCCCC(=O)NO)C(=O)NCc1ccccc1` [Example 167], for which the IC50 in the assay on MM96L melanoma cells (setting [2]) was determined as 3.24 µM; in assay [1] (Homo sapiens, Fibroblast), 10.4 µM. For the same compound, in the assay with MM96L melanoma cells, the “SI (Selectivity Index = IC50 (NFF)/IC50 (MM96L))” value was 3.2.
